Assay results: patent US10913727B2, “Modulators of the integrated stress pathway” (Calico Life Sciences LLC, priority 2016, dated 2021)

These compounds were tested on HEK293T cells carrying the ATF4 luciferase reporter (assay: ATF4-Luc assay, in vitro model of Vanishing Cell White Matter Disease (VWMD)). Conditions: Homo sapiens, HEK-293T, 1 μg/mL tunicamycin, 7 hours, One Glo luminescence.
Format: cell-based
Outline: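 Stable HEK293T line with human ATF4 5′-UTR–firefly luciferase reporter treated with 1 μg/mL tunicamycin plus 200 nM compound for 7 h. Luminescence read; EC50 derived.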
For O=C(COc1ccc(Cl)c(F)c1)NC12CC(NC(=O)c3cnc(C(F)F)s3)(C1)C2 [Compound 443, N-{3-[2-(4-chloro-3-fluorophenoxy)acetamido]bicyclo[1.1.1]pentan-1-yl}-2-(difluoromethyl)-1,3-thiazole-5-carboxamide], the EC50 was under 0.05 µM. CC(C)(C)OC(=O)NCc1ccnc(C(=O)NC23CC(NC(=O)COc4ccc(Cl)c(F)c4)(C2)C3)c1 [Compound 192, tert-butyl {[2-({3-[2-(4-chloro-3-fluorophenoxy)acetamido]bicyclo[1.1.1]pentan-1-yl}carbamoyl)pyridin-4-yl]methyl}carbamate] showed an EC50 of 0.25 to 1 µM. In the case of Cc1nn(C)c(C(=O)NC23CCC(NC(=O)COc4ccc(Cl)c(F)c4)(CC2)C[C@@H]3O)c1F [Compound 498, N-{(2S)-4-[2-(4-chloro-3-fluorophenoxy)acetamido]-2-hydroxybicyclo[2.2.2]octan-1-yl}-4-fluoro-1,3-dimethyl-1H-pyrazole-5-carboxamide], the EC50 is reported as under 0.05 µM. With O=C(COc1ccc(Cl)c(F)c1)NC12CC(NC(=O)c3ncc(C(F)F)s3)(C1)C2 [Compound 425, N-{3-[2-(4-chloro-3-fluorophenoxy)acetamido]bicyclo[1.1.1]pentan-1-yl}-5-(difluoromethyl)-1,3-thiazole-2-carboxamide] the EC50 was 0.25 to 1 µM. With O=C(COc1ccc(Cl)c(F)c1)NC12CC(Nc3nnc(-c4ccccc4)o3)(C1)C2 [Compound 404, 2-(4-chloro-3-fluorophenoxy)-N-{3-[(5-phenyl-1,3,4-oxadiazol-2-yl)amino]bicyclo[1.1.1]pentan-1-yl}acetamide] the EC50 was over 2 µM. In the case of Cc1nc2ccc(C(=O)NC34CC(NC(=O)COc5ccc(Cl)c(F)c5)(C3)C4)cc2o1 [Compound 341, N-{3-[2-(4-chloro-3-fluorophenoxy)acetamido]bicyclo[1.1.1]pentan-1-yl}-2-methyl-1,3-benzoxazole-6-carboxamide], the EC50 is reported as over 2 µM. Work on O=C(COc1ccc(Cl)c(F)c1)NC12CC(NC(=O)c3ccn4nccc4n3)(C1)C2 [Compound 631, N-{3-[2-(4-chloro-3-fluorophenoxy)acetamido]bicyclo[1.1.1]pentan-1-yl}pyrazolo[1,5-a]pyrimidine-5-carboxamide] yielded an EC50 of 0.05 to 0.25 µM. With O=C(COc1ccc(Cl)c(F)c1)NC12CC(NC(=O)c3cccc(F)c3F)(C1)C2 [Compound 509, N-{3-[2-(4-chloro-3-fluorophenoxy)acetamido]bicyclo[1.1.1]pentan-1-yl}-2,3-difluorobenzamide] the EC50 was 0.25 to 1 µM. CCc1ccc(C(=O)NC23CC(NC(=O)COc4ccc(Cl)c(F)c4)(C2)C3)cc1 [Compound 761, N-{3-[2-(4-chloro-3-fluorophenoxy)acetamido]bicyclo[1.1.1]pentan-1-yl}-4-ethylbenzamide] showed an EC50 of over 2 µM. Compound O=C(COc1ccc(Cl)c(F)c1)NC12CC(Nc3ccnc(N4CCOCC4)n3)(C1)C2 [Compound 721, 2-(4-chloro-3-fluorophenoxy)-N-(3-{[2-(morpholin-4-yl)pyrimidin-4-yl]amino}bicyclo[1.1.1]pentan-1-yl)acetamide] has an EC50 of over 2 µM. CCOc1ncccc1C(=O)NC12CC(NC(=O)COc3ccc(Cl)c(F)c3)(C1)C2 [Compound 861, N-{3-[2-(4-chloro-3-fluorophenoxy)acetamido]bicyclo[1.1.1]pentan-1-yl}-2-ethoxypyridine-3-carboxamide] showed an EC50 of over 2 µM. Compound Cc1cnc(C(=O)NC23CC(NC(=O)COc4ccc(Cl)c(F)c4)(C2)C3)nc1 [Compound 268, N-{3-[2-(4-chloro-3-fluorophenoxy)acetamido]bicyclo[1.1.1]pentan-1-yl}-5-methylpyrimidine-2-carboxamide] has an EC50 of 0.05 to 0.25 µM. Compound O=C(COc1ccc(Cl)c(F)c1)NC12CC(NC(=O)c3ccc4nsnc4c3)(C1)C2 [Compound 797, N-{3-[2-(4-chloro-3-fluorophenoxy)acetamido]bicyclo[1.1.1]pentan-1-yl}-2,1,3-benzothiadiazole-5-carboxamide] has an EC50 of over 2 µM. Work on O=C(COc1ccc(Cl)c(F)c1)NC12CCC(NC(=O)c3cnn4ccccc34)(CC1)CC2O (stereo not drawn) [Compound 596, N-{4-[2-(4-chloro-3-fluorophenoxy)acetamido]-3-hydroxybicyclo[2.2.2]octan-1-yl}pyrazolo[1,5-a]pyridine-3-carboxamide] yielded an EC50 of 0.25 to 1 µM. In the case of Cc1nc(C(=O)NC23CCC(NC(=O)COc4ccc(Cl)c(F)c4)(CC2)C(O)C3)ccc1C#N (stereo not drawn) [Compound 916, N-{4-[2-(4-chloro-3-fluorophenoxy)acetamido]-3-hydroxybicyclo[2.2.2]octan-1-yl}-5-cyano-6-methylpyridine-2-carboxamide], the EC50 is reported as 0.05 to 0.25 µM. Cc1cc2c(NC34CC(NC(=O)COc5cccc(OC(F)F)c5)(C3)C4)nccn2n1 [Compound 439, 2-[3-(difluoromethoxy)phenoxy]-N-{3-[(2-methylpyrazolo[1,5-a]pyrazin-4-yl)amino]bicyclo[1.1.1]pentan-1-yl}acetamide] was tested, and the EC50 was over 2 µM. For Cn1ccc(C(=O)NC23CCC(NC(=O)COc4ccc(Cl)c(F)c4)(CC2)C(O)C3)n1 (stereo not drawn) [Compound 361, N-{4-[2-(4-chloro-3-fluorophenoxy)acetamido]-3-hydroxybicyclo[2.2.2]octan-1-yl}-1-methyl-1H-pyrazole-3-carboxamide], the EC50 was 0.05 to 0.25 µM. In the case of Cc1nn(C)c(C(=O)NC23CC(NC(=O)COc4ccc(Cl)c(F)c4)(C2)C3)c1F [Compound 499, N-{3-[2-(4-chloro-3-fluorophenoxy)acetamido]bicyclo[1.1.1]pentan-1-yl}-4-fluoro-1,3-dimethyl-1H-pyrazole-5-carboxamide], the EC50 is reported as under 0.05 µM. For O=C(COc1ccc(Cl)c(Cl)c1)NC12CC(NC(=O)c3ccc(OC(F)(F)F)cn3)(C1)C2 [Compound 144, N-{3-[2-(3,4-dichlorophenoxy)acetamido]bicyclo[1.1.1]pentan-1-yl}-5-(trifluoromethoxy)pyridine-2-carboxamide], the EC50 was under 0.05 µM. With Cc1ncc(C(=O)NC23CC(NC(=O)COc4ccc(Cl)c(Cl)c4)(C2)C3)o1 [Compound 675, N-{3-[2-(3,4-dichlorophenoxy)acetamido]bicyclo[1.1.1]pentan-1-yl}-2-methyl-1,3-oxazole-5-carboxamide] the EC50 was 0.05 to 0.25 µM. CCc1cc(C(=O)NC23CC(NC(=O)COc4ccc(Cl)c(F)c4)(C2)C3)no1 [Compound 247, N-{3-[2-(4-chloro-3-fluorophenoxy)acetamido]bicyclo[1.1.1]pentan-1-yl}-5-ethyl-1,2-oxazole-3-carboxamide] was tested, and the EC50 was 0.25 to 1 µM. For O=C(COc1ccc(Cl)c(F)c1)NC12CC(NC(=O)c3nc(C4CC4)cs3)(C1)C2 [Compound 590, N-{3-[2-(4-chloro-3-fluorophenoxy)acetamido]bicyclo[1.1.1]pentan-1-yl}-4-cyclopropyl-1,3-thiazole-2-carboxamide], the EC50 was 0.05 to 0.25 µM. For O=C(COc1ccc(Cl)c(F)c1)NC12CC(NC(=O)c3ccc(F)c(F)c3)(C1)C2 [Compound 514, N-{3-[2-(4-chloro-3-fluorophenoxy)acetamido]bicyclo[1.1.1]pentan-1-yl}-3,4-difluorobenzamide], the EC50 was 0.05 to 0.25 µM. Cc1ccc(C(=O)NC23CC(NC(=O)COc4ccc(Cl)c(Cl)c4)(C2)C3)c(C)n1 [Compound 687, N-{3-[2-(3,4-dichlorophenoxy)acetamido]bicyclo[1.1.1]pentan-1-yl}-2,6-dimethylpyridine-3-carboxamide] was tested, and the EC50 was 0.25 to 1 µM. In the case of Cn1ccnc1C(=O)NC12CC(NC(=O)COc3ccc(Cl)c(F)c3)(C1)C2 [Compound 904, N-{3-[2-(4-chloro-3-fluorophenoxy)acetamido]bicyclo[1.1.1]pentan-1-yl}-1-methyl-1H-imidazole-2-carboxamide], the EC50 is reported as over 2 µM. In the case of CC(=O)NCc1ccc(C(=O)NC23CC(NC(=O)COc4ccc(Cl)c(F)c4)(C2)C3)o1 [Compound 778, 5-(acetamidomethyl)-N-{3-[2-(4-chloro-3-fluorophenoxy)acetamido]bicyclo[1.1.1]pentan-1-yl}furan-2-carboxamide], the EC50 is reported as over 2 µM. CSc1ccccc1C(=O)NC12CC(NC(=O)COc3ccc(Cl)c(F)c3)(C1)C2 [Compound 866, N-{3-[2-(4-chloro-3-fluorophenoxy)acetamido]bicyclo[1.1.1]pentan-1-yl}-2-(methylsulfanyl)benzamide] was tested, and the EC50 was over 2 µM. O=C(COc1ccc(Cl)c(F)c1)NC12CC(NC(=O)c3cc(C(=O)NC4CC(F)(F)C4)ccn3)(C1)C2 [Compound 263, N^2-{3-[2-(4-chloro-3-fluorophenoxy)acetamido]bicyclo[1.1.1]pentan-1-yl}-N^4-(3,3-difluorocyclobutyl)pyridine-2,4-dicarboxamide] was tested, and the EC50 was 0.25 to 1 µM. In the case of O=C(COc1ccc(Cl)c(F)c1)NC12CCC(NC(=O)c3ccc4cc(F)ccc4n3)(CC1)[C@@H](O)C2 [Compound 930, N-{(2S)-4-[2-(4-chloro-3-fluorophenoxy)acetamido]-2-hydroxybicyclo[2.2.2]octan-1-yl}-6-fluoroquinoline-2-carboxamide], the EC50 is reported as under 0.05 µM. With Cc1nc2ccc(C(=O)NC34CC(NC(=O)COc5ccc(Cl)c(F)c5)(C3)C4)cc2s1 [Compound 774, N-{3-[2-(4-chloro-3-fluorophenoxy)acetamido]bicyclo[1.1.1]pentan-1-yl}-2-methyl-1,3-benzothiazole-6-carboxamide] the EC50 was over 2 µM. Compound Cn1nc(C(F)F)cc1C(=O)NC12CC(NC(=O)COc3ccc(Cl)c(F)c3)(C1)C2 [Compound 365, N-{3-[2-(4-chloro-3-fluorophenoxy)acetamido]bicyclo[1.1.1]pentan-1-yl}-3-(difluoromethyl)-1-methyl-1H-pyrazole-5-carboxamide] has an EC50 of under 0.05 µM. O=C(COc1ccc(Cl)c(F)c1)NC12CCC(NC(=O)c3ccc(CO)cn3)(CC1)C[C@@H]2O [Compound 753, N-{(3S)-4-[2-(4-chloro-3-fluorophenoxy)acetamido]-3-hydroxybicyclo[2.2.2]octan-1-yl}-5-(hydroxymethyl)pyridine-2-carboxamide] was tested, and the EC50 was 0.25 to 1 µM. Cc1c(C(=O)NC23CC(NC(=O)COc4ccc(Cl)c(F)c4)(C2)C3)cnn1C [Compound 882, N-{3-[2-(4-chloro-3-fluorophenoxy)acetamido]bicyclo[1.1.1]pentan-1-yl}-1,5-dimethyl-1H-pyrazole-4-carboxamide] gave an EC50 of over 2 µM.
